Values after ≈ are worked out from the molar mass of the structure shown.
Experiments:
Format in all cases: functional
[1] = tested on: Bacillus spizizenii; test: Antimicrobial activity against Bacillus subtilis subsp. spizizenii ATCC 6633 after 24 hr by broth dilution method; settings: ATCC 6633, 24 h
[2] = tested on: Staphylococcus epidermidis; test: Antimicrobial activity against Staphylococcus epidermidis ATCC 12228 after 24 hr by broth dilution method; settings: ATCC 12228, 24 h
[3] = tested on: Micrococcus luteus; test: Antimicrobial activity against Micrococcus luteus ATCC 4698 after 24 hr by broth dilution method; settings: ATCC 4698, 24 h
[4] = tested on: Staphylococcus aureus; test: Antimicrobial activity against Staphylococcus aureus ATCC 25923 after 24 hr by broth dilution method; settings: ATCC 25923, 24 h
[5] = tested on: Staphylococcus hominis; test: Antimicrobial activity against Staphylococcus hominis ATCC 27844 after 24 hr by broth dilution method; settings: ATCC 27844, 24 h
[6] = tested on: Bacillus pumilus; test: Antimicrobial activity against Bacillus pumilus ATCC 14884 after 24 hr by broth dilution method; settings: ATCC 14884, 24 h
[7] = tested on: Bacillus cereus; test: Antimicrobial activity against Bacillus cereus ATCC 11778 after 24 hr by broth dilution method; settings: ATCC 11778, 24 h
[8] = tested on: Proteus vulgaris; test: Antimicrobial activity against Proteus vulgaris ATCC 13315 after 24 hr by broth dilution method; settings: ATCC 13315, 24 h
[9] = tested on: Proteus mirabilis; test: Antimicrobial activity against Proteus mirabilis ATCC 49565 after 24 hr by broth dilution method; settings: ATCC 49565, 24 h
[10] = tested on: Salmonella typhi; test: Antimicrobial activity against Salmonella enterica subsp. enterica serovar Typhi ATCC 19430 after 24 hr by broth dilution method; settings: ATCC 19430, 24 h
[11] = tested on: Klebsiella pneumoniae; test: Antimicrobial activity against Klebsiella pneumoniae ATCC 13883 after 24 hr by broth dilution method; settings: ATCC 13883, 24 h
[12] = tested on: Escherichia coli; test: Antimicrobial activity against Escherichia coli ATCC 25922 after 24 hr by broth dilution method; settings: ATCC 25922, 24 h
[13] = tested on: Pseudomonas aeruginosa; test: Antimicrobial activity against Pseudomonas aeruginosa ATCC 10145 after 24 hr by broth dilution method; settings: ATCC 10145, 24 h
[14] = tested on: Aspergillus niger; test: Antimicrobial activity against Aspergillus niger ATCC 9142 after 24 hr by broth dilution method; settings: ATCC 9142, 24 h
[15] = tested on: Aspergillus awamori; test: Antimicrobial activity against Aspergillus awamori ATCC 22342 after 24 hr by broth dilution method; settings: ATCC 22342, 24 h
[16] = tested on: Candida albicans; test: Antimicrobial activity against Candida albicans ATCC 10231 after 24 hr by broth dilution method; settings: ATCC 10231, 24 h
[17] = tested on: Alternaria alternata; test: Antimicrobial activity against Alternaria alternata ATCC 66868 after 24 hr by broth dilution method; settings: ATCC 66868, 24 h
[18] = tested on: Microsporum canis; test: Antimicrobial activity against Arthroderma otae ATCC 11622 after 24 hr by broth dilution method; settings: ATCC 11622, 24 h
[19] = tested on: Rhizoctonia solani; test: Antimicrobial activity against Rhizoctonia solani ATCC 76131 after 24 hr by broth dilution method; settings: ATCC 76131, 24 h
[20] = tested on: Trichophyton longifusum; test: Antimicrobial activity against Trichophyton longifusum ATCC 22397 after 24 hr by broth dilution method; settings: ATCC 22397, 24 h
[21] = tested on: Fusarium solani; test: Antimicrobial activity against Fusarium solani ATCC 38136 after 24 hr by broth dilution method; settings: ATCC 38136, 24 h
[22] = tested on: Trichoderma viride; test: Antimicrobial activity against Hypocrea rufa ATCC 52440 after 24 hr by broth dilution method; settings: ATCC 52440, 24 h
[23] = tested on: Aspergillus flavus; test: Antimicrobial activity against Aspergillus flavus ATCC 15517 after 24 hr by broth dilution method; settings: ATCC 15517, 24 h
[24] = tested on: Aspergillus fumigatus; test: Antimicrobial activity against Aspergillus fumigatus after 24 hr by broth dilution method

SMILES | MIC [1] | MIC [2] | MIC [3] | MIC [4] | MIC [5] | MIC [6] | MIC [7] | MIC [8] | MIC [9] | MIC [10] | MIC [11] | MIC [12] | MIC [13] | MIC [14] | MIC [15] | MIC [16] | MIC [17] | MIC [18] | MIC [19] | MIC [20] | other results
O=C1Nc2ccc(Cl)cc2/C1=N/N1C(=O)C(Cl)C1c1ccc(O)cc1 (stereo not drawn) | 9.37 µg/mL (≈ 24.9 µM) | 9.37 µg/mL (≈ 24.9 µM) | 18.8 µg/mL (≈ 49.8 µM) | 18.8 µg/mL (≈ 49.8 µM) | 18.8 µg/mL (≈ 49.8 µM) | 9.37 µg/mL (≈ 24.9 µM) | 9.37 µg/mL (≈ 24.9 µM) | 9.37 µg/mL (≈ 24.9 µM) | 9.37 µg/mL (≈ 24.9 µM) | 9.37 µg/mL (≈ 24.9 µM) | 18.8 µg/mL (≈ 49.8 µM) | 9.37 µg/mL (≈ 24.9 µM) | 9.37 µg/mL (≈ 24.9 µM) | 4.68 µg/mL (≈ 12.4 µM) | 4.68 µg/mL (≈ 12.4 µM) | 4.68 µg/mL (≈ 12.4 µM) | 4.68 µg/mL (≈ 12.4 µM) | 4.68 µg/mL (≈ 12.4 µM) | 4.68 µg/mL (≈ 12.4 µM) | 4.68 µg/mL (≈ 12.4 µM) | MIC [21]: 9.37 µg/mL (≈ 24.9 µM); MIC [22]: 4.68 µg/mL (≈ 12.4 µM); MIC [23]: 4.68 µg/mL (≈ 12.4 µM); MIC [24]: 4.68 µg/mL (≈ 12.4 µM)
O=C(O)c1cn(C2CC2)c2cc(N3CCNCC3)c(F)cc2c1=O [CIPROFLOXACIN] | 4.7 µg/mL (≈ 14.2 µM) | 4.7 µg/mL (≈ 14.2 µM) | 4.7 µg/mL (≈ 14.2 µM) | 4.7 µg/mL (≈ 14.2 µM) | 4.7 µg/mL (≈ 14.2 µM) | 4.7 µg/mL (≈ 14.2 µM) | 4.7 µg/mL (≈ 14.2 µM) | 4.7 µg/mL (≈ 14.2 µM) | 4.7 µg/mL (≈ 14.2 µM) | 4.7 µg/mL (≈ 14.2 µM) | 4.7 µg/mL (≈ 14.2 µM) | 4.7 µg/mL (≈ 14.2 µM) | 4.7 µg/mL (≈ 14.2 µM) |  |  |  |  |  |  |  | 
O=C1Nc2ccc(Cl)cc2/C1=N/N1C(=O)C(Cl)C1c1ccco1 (stereo not drawn) | 75 µg/mL (≈ 214 µM) | 75 µg/mL (≈ 214 µM) | 37.5 µg/mL (≈ 107 µM) | 37.5 µg/mL (≈ 107 µM) | 37.5 µg/mL (≈ 107 µM) | 37.5 µg/mL (≈ 107 µM) | 37.5 µg/mL (≈ 107 µM) | 37.5 µg/mL (≈ 107 µM) | 37.5 µg/mL (≈ 107 µM) | 75 µg/mL (≈ 214 µM) | 75 µg/mL (≈ 214 µM) | 37.5 µg/mL (≈ 107 µM) | 37.5 µg/mL (≈ 107 µM) | 18.8 µg/mL (≈ 53.5 µM) | 37.5 µg/mL (≈ 107 µM) | 18.8 µg/mL (≈ 53.5 µM) | 37.5 µg/mL (≈ 107 µM) | 37.5 µg/mL (≈ 107 µM) | 37.5 µg/mL (≈ 107 µM) | 18.8 µg/mL (≈ 53.5 µM) | MIC [21]: 37.5 µg/mL (≈ 107 µM); MIC [22]: 37.5 µg/mL (≈ 107 µM); MIC [23]: 37.5 µg/mL (≈ 107 µM); MIC [24]: 18.8 µg/mL (≈ 53.5 µM)
CN(C)c1ccc(C2SCC(=O)N2/N=C2\C(=O)Nc3ccc(Cl)cc32)cc1 (stereo not drawn) | 18.8 µg/mL (≈ 46.8 µM) | 18.8 µg/mL (≈ 46.8 µM) | 18.8 µg/mL (≈ 46.8 µM) | 9.37 µg/mL (≈ 23.4 µM) | 9.37 µg/mL (≈ 23.4 µM) | 9.37 µg/mL (≈ 23.4 µM) | 18.8 µg/mL (≈ 46.8 µM) | 18.8 µg/mL (≈ 46.8 µM) | 9.37 µg/mL (≈ 23.4 µM) | 9.37 µg/mL (≈ 23.4 µM) | 18.8 µg/mL (≈ 46.8 µM) | 18.8 µg/mL (≈ 46.8 µM) | 18.8 µg/mL (≈ 46.8 µM) | 4.68 µg/mL (≈ 11.7 µM) | 9.37 µg/mL (≈ 23.4 µM) | 9.37 µg/mL (≈ 23.4 µM) | 4.68 µg/mL (≈ 11.7 µM) | 9.37 µg/mL (≈ 23.4 µM) | 4.68 µg/mL (≈ 11.7 µM) | 4.68 µg/mL (≈ 11.7 µM) | MIC [21]: 4.68 µg/mL (≈ 11.7 µM); MIC [22]: 4.68 µg/mL (≈ 11.7 µM); MIC [23]: 4.68 µg/mL (≈ 11.7 µM); MIC [24]: 4.68 µg/mL (≈ 11.7 µM)
O=C1Nc2ccc(Cl)cc2/C1=N/N1C(=O)CSC1c1ccc([N+](=O)[O-])cc1 (stereo not drawn) | 37.5 µg/mL (≈ 93.1 µM) | 18.8 µg/mL (≈ 46.5 µM) | 9.37 µg/mL (≈ 23.3 µM) | 9.37 µg/mL (≈ 23.3 µM) | 9.37 µg/mL (≈ 23.3 µM) | 18.8 µg/mL (≈ 46.5 µM) | 18.8 µg/mL (≈ 46.5 µM) | 37.5 µg/mL (≈ 93.1 µM) | 18.8 µg/mL (≈ 46.5 µM) | 18.8 µg/mL (≈ 46.5 µM) | 9.37 µg/mL (≈ 23.3 µM) | 18.8 µg/mL (≈ 46.5 µM) | 9.37 µg/mL (≈ 23.3 µM) | 4.68 µg/mL (≈ 11.6 µM) | 9.37 µg/mL (≈ 23.3 µM) | 9.37 µg/mL (≈ 23.3 µM) | 4.68 µg/mL (≈ 11.6 µM) | 4.68 µg/mL (≈ 11.6 µM) | 9.37 µg/mL (≈ 23.3 µM) | 4.68 µg/mL (≈ 11.6 µM) | MIC [21]: 9.37 µg/mL (≈ 23.3 µM); MIC [22]: 9.37 µg/mL (≈ 23.3 µM); MIC [23]: 4.68 µg/mL (≈ 11.6 µM); MIC [24]: 4.68 µg/mL (≈ 11.6 µM)
O=C1Nc2ccc(Cl)cc2/C1=N/N1C(=O)C(Cl)C1c1ccccc1Cl (stereo not drawn) | 150 µg/mL (≈ 380 µM) | 150 µg/mL (≈ 380 µM) | 150 µg/mL (≈ 380 µM) | 300 µg/mL (≈ 760 µM) | 300 µg/mL (≈ 760 µM) | 300 µg/mL (≈ 760 µM) | 300 µg/mL (≈ 760 µM) | 150 µg/mL (≈ 380 µM) | 300 µg/mL (≈ 760 µM) | 300 µg/mL (≈ 760 µM) | 300 µg/mL (≈ 760 µM) | 150 µg/mL (≈ 380 µM) | 300 µg/mL (≈ 760 µM) | 150 µg/mL (≈ 380 µM) | 150 µg/mL (≈ 380 µM) | 75 µg/mL (≈ 190 µM) | 150 µg/mL (≈ 380 µM) | 75 µg/mL (≈ 190 µM) | 150 µg/mL (≈ 380 µM) | 150 µg/mL (≈ 380 µM) | MIC [21]: 150 µg/mL (≈ 380 µM); MIC [22]: 150 µg/mL (≈ 380 µM); MIC [23]: 150 µg/mL (≈ 380 µM); MIC [24]: 150 µg/mL (≈ 380 µM)

Source: ChEMBL document CHEMBL3046063, “Synthesis and antimicrobial activity of 5-chloroindoline-2,3-dione derivatives” (2012)
